Laboratory results reported in patent US9096596B2 (Janssen Pharmaceutica NV, priority 2013, dated 2015).
pIC50, pKi: −log10 of the molar value. Like-named read-outs stand apart in the source and are kept apart here.

Tests used:
P2X7 [1] = target: T1, P2X7 (Homo sapiens (Human), UniProt Q99572); assay: P2X7 antagonism in human whole blood (IL-1β release, ELISA); format: cell-based; settings: IL-1β release in human blood, LPS 30 ng/ml + Bz-ATP 1 mM
Protocol: Human blood was collected using a blood donor program. […] Cells were incubated for an additional 1.5 hours.

rat P2X7 [2] = target: T2, rat P2X7 (Rattus norvegicus (Rat), UniProt Q64663); assay: Ca2+ flux (FLIPR) in 1321N1 cells expressing recombinant rat P2X7 channel; format: cell-based; settings: 250 μM BzATP, Calcium-4 dye
Procedure, shortened: (§1)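 1321N1 cells stably expressing P2X7 were loaded with Calcium-4 dye for 60 min in HEPES-buffered saline (pH 7.40, 1 mM CaCl2, 1 mM MgCl2), then preincubated with test compounds for 30 min. Fluorescence change was read 180 s after agonist addition.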

P2X7 [3] = target: T1, P2X7; assay: Ca2+ flux (FLIPR) in 1321N1 cells expressing recombinant human P2X7 channel; format: cell-based; settings: 250 μM BzATP, Calcium-4 dye
Procedure, shortened: as §1

rat P2X7 [4] = target: T2, rat P2X7; assay: Radioligand binding, rat P2X7-1321N1 cell membranes, tracer tritiated A-804598
Protocol: (§2) On the day of the experiment, cell membrane preparations were made according to standard published methods. […] The compound can be prepared as described in the literature. […] The assay was terminated by filtration (GF/B filters pre-soaked with 0.3% PEI) and washed with washing buffer (Tris-HCl 50 mM). The IC50 generated in the binding assay was corrected for tracer concentration and affinity of the tracer to derive at the affinity (Ki) of the test compounds.

P2X7 [5] = target: T1, P2X7; assay: Radioligand binding, human P2X7-1321N1 cell membranes, tracer tritiated A-804598
Protocol: as §2

P2X7 [6] = target: T1, P2X7; assay: P2X7 antagonism in human PBMCs (IL-1β release, ELISA); format: cell-based; settings: test compound 10 μM, IL-1β release in human PBMCs, LPS 30 ng/ml + Bz-ATP 0.5 mM, read-out: PBMC 10 μM (% control)
Protocol: Human blood was collected using a blood donor program. […] Cells were incubated for an additional 1.5 hours. […] In Table 2, when the data cell has been left blank, it is intended to mean that the compound was not tested in that assay.

[7] = rat P2X7-1321N1 membranes, 1 hour at 4° C., IC50 corrected for tracer concentration and affinity
[8] = human P2X7-1321N1 membranes, 1 hour at 4° C., IC50 corrected for tracer concentration and affinity

T2 sequence (Q64663 whole entry): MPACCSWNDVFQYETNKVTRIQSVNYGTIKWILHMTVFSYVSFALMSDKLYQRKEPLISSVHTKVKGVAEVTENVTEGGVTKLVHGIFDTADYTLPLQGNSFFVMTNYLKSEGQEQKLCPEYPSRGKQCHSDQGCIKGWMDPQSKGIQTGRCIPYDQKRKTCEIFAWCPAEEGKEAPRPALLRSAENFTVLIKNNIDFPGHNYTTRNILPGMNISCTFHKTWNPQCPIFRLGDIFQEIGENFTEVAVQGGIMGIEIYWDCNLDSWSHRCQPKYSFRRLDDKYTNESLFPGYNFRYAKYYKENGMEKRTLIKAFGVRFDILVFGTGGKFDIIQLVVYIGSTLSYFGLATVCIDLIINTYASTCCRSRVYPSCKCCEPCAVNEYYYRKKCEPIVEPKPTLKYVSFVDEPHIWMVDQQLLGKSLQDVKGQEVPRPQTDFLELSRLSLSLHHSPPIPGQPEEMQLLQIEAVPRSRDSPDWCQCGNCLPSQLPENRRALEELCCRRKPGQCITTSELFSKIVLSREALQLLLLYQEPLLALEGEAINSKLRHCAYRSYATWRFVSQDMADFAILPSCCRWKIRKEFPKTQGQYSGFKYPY
T1 sequence (Q99572 whole entry): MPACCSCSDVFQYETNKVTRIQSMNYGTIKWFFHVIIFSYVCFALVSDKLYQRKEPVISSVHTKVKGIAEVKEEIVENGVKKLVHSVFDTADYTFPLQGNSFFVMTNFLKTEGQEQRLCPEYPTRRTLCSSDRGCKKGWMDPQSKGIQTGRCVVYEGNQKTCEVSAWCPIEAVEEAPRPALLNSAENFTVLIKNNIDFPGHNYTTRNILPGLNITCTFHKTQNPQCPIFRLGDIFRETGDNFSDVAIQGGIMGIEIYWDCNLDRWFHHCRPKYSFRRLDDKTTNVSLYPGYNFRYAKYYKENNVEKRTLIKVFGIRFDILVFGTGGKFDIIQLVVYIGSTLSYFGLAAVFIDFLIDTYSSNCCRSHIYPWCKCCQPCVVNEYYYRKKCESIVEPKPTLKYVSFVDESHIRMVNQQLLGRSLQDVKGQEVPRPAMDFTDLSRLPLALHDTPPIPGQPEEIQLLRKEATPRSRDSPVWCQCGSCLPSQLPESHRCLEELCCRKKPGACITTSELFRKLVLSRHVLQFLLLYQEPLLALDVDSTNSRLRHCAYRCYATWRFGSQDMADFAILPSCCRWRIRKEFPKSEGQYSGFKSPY

Structure (SMILES)	pIC50 (P2X7 [1])	pIC50 (rat P2X7 [2])	pIC50 (P2X7 [3])	pKi (rat P2X7 [4]; [7])	pKi (P2X7 [5]; [8])	remaining activity at 10 µM (P2X7 [6]) [%]	pKi (rat P2X7 [4])	pKi (P2X7 [5])
O=C(c1cccc(Cl)c1Cl)N1CCc2c(ncnc2-c2ccn[nH]2)C1 [Example 7, 7-[(2,3-Dichlorophenyl)carbonyl]-4-(1H-pyrazol-5-yl)-5,6,7,8-tetrahydropyrido[3,4-d]pyrimidine]	6.25	6.31	7.68	7.84	7.81	–	–	–
O=C(c1cccc(Cl)c1Cl)N1CCc2c(ncnc2-n2nccn2)C1 [Example 107, 7-[(2,3-Dichlorophenyl)carbonyl]-4-(2H-1,2,3-triazol-2-yl)-5,6,7,8-tetrahydropyrido[3,4-d]pyrimidine]	5.95	5.61	8.35	7.62	8.02	–	–	–
O=C(c1ccc(Cl)c(F)c1Cl)N1CCc2c(ncnc2-c2ccn[nH]2)C1 [Example 20, 7-[(2,4-Dichloro-3-fluorophenyl)carbonyl]-4-(1H-pyrazol-5-yl)-5,6,7,8-tetrahydropyrido[3,4-d]pyrimidine]	5.91	6.47	8.23	8.46	7.60	-0.2	–	–
COCCn1ccc(-c2nc(C)nc3c2C[C@@H](C)N(C(=O)c2cccc(C(F)(F)F)c2Cl)C3)n1 (single isomer, unassigned) [Example 128, (R*)-(2-chloro-3-(trifluoromethyl)phenyl)(4-(1-(2-methoxyethyl)-1H-pyrazol-3-yl)-2,6-dimethyl-5,6-dihydropyrido[3,4-d]pyrimidin-7(8H)-yl)methanone]	–	8.01	7.53	–	–	–	8.52	7.50
O=C(c1cccc(Cl)c1Cl)N1CCc2c(ncnc2-n2nccn2)C1 [Example 23, 7-[(2,3-Dichlorophenyl)carbonyl]-4-(2H-1,2,3-triazol-2-yl)-5,6,7,8-tetrahydropyrido[3,4-d]pyrimidine]	5.95	–	–	–	–	–	–	–

Results, then the molecule that gave them:

pIC50 (P2X7 [1])	pIC50 (rat P2X7 [2])	pIC50 (P2X7 [3])	pKi (rat P2X7 [4]; [7])	pKi (P2X7 [5]; [8])	remaining activity at 10 µM (P2X7 [6]) [%]	pKi (rat P2X7 [4])	pKi (P2X7 [5])	Structure (SMILES)
5.70	5.22	7.55	7.24	7.23	–	–	–	O=C(c1cccc(C(F)(F)F)c1Cl)N1CCc2c(ncnc2-c2ccccn2)C1 [Example 12, 7-{[2-Chloro-3-(trifluoromethyl)phenyl]carbonyl}-4-pyridin-2-yl-5,6,7,8-tetrahydropyrido[3,4-d]pyrimidine]
5.95	5.96	8.10	7.92	7.79	–	–	–	Cc1nc2c(c(-c3ccn[nH]3)n1)CCN(C(=O)c1cccc(C(F)(F)F)c1Cl)C2 [Example 33, 7-{[2-Chloro-3-(trifluoromethyl)phenyl]carbonyl}-2-methyl-4-(1H-pyrazol-5-yl)-5,6,7,8-tetrahydropyrido[3,4-d]pyrimidine]
6.20	8.00	7.58	–	7.60	13.8	–	–	Cn1ccc(-c2ncnc3c2CCN(C(=O)c2cccc(C(F)(F)F)c2Cl)C3)n1 [Example 19, 7-{[2-Chloro-3-(trifluoromethyl)phenyl]carbonyl}-4-(1-methyl-1H-pyrazol-3-yl)-5,6,7,8-tetrahydropyrido[3,4-d]pyrimidine]
–	6.57	7.32	7.90	7.40	–	–	–	Cc1nc2c(c(-c3[nH]ncc3F)n1)CCN(C(=O)c1cccc(C(F)(F)F)c1Cl)C2 [Example 35, 7-{[2-Chloro-3-(trifluoromethyl)phenyl]carbonyl}-4-(4-fluoro-1H-pyrazol-5-yl)-2-methyl-5,6,7,8-tetrahydropyrido[3,4-d]pyrimidine]
–	6.80	7.80	8.00	7.30	–	–	–	O=C(c1cccc(C(F)(F)F)c1Cl)N1CCc2c(ncnc2-c2cscn2)C1 [Example 43, 7-{[2-Chloro-3-(trifluoromethyl)phenyl]carbonyl}-4-(1,3-thiazol-4-yl)-5,6,7,8-tetrahydropyrido[3,4-d]pyrimidine]
